Data on seven molecules can be found in PubChem BioAssay (NCI).

Among the test systems are PC-3 prostate; SK-MEL-2 melanoma; UACC-62 melanoma; ACHN renal; DU-145 prostate; SF-295 CNS; NCI/ADR-RES ovarian; OVCAR-5 ovarian; RXF 393 renal; HT29 colon.
Holding throughout (experiment): NCI-60 cell line screen, 48 h

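Dose response: 5 concentrations. Exposure: 48 h. Format: 96-well plates. Endpoint: linear interpolation; highest concentration if not reached. The concentration for 50% growth inhibition is given as GI50. TGI marks complete inhibition of growth.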

Regarding `CC1(C)CC2C=C(C=O)C3(C=O)CC3(C)C2C1` (stereo not given), the TGI in the test on PC-3 prostate came to 4.33 µM; in the test on SK-MEL-2 melanoma it was 4.45 µM; in the test with UACC-62 melanoma it was 17.1 µM; with ACHN renal, 2.83 µM; in the test on DU-145 prostate it was 17.8 µM; in the test with SF-295 CNS it was 18.8 µM. For the same molecule, the TGI worked out at 5.21 µM in the test on NCI/ADR-RES ovarian, 4.14 µM in the test with OVCAR-5 ovarian, 3.41 µM in the test with RXF 393 renal and 4.54 µM in the test on HT29 colon.

On to `c1ccc(-c2nn(-c3ccccc3)[n+](-c3cccc4ccccc34)n2)cc1`, for which the GI50 is 0.583 µM in the test on PC-3 prostate; 2.92 µM in the test on SK-MEL-2 melanoma; 1.14 µM in the test on UACC-62 melanoma; 12 µM with ACHN renal; 4.26 µM in the test with DU-145 prostate; 2.69 µM in the test with SF-295 CNS. In addition, the GI50 is > 100 µM in the test on NCI/ADR-RES ovarian, 4.78 µM in the test on OVCAR-5 ovarian, 2.24 µM in the test with RXF 393 renal and 0.918 µM with HT29 colon. The TGI with PC-3 prostate is > 100 µM; in the test on SK-MEL-2 melanoma, 12 µM; in the test on UACC-62 melanoma it was 3.59 µM; in the test on ACHN renal, > 100 µM; with DU-145 prostate, > 100 µM; with SF-295 CNS it was 26.6 µM. Further, the TGI is > 100 µM with NCI/ADR-RES ovarian, 63.2 µM in the test on OVCAR-5 ovarian, 31.4 µM with RXF 393 renal and 15.1 µM in the test with HT29 colon.

Consider `N#Cc1c(-c2ccccc2)cc(-c2ccccc2)n(CCCCC(=O)NO)c1=O`, for which the GI50 was 2.72 µM in the test with PC-3 prostate; 3.21 µM in the test with SK-MEL-2 melanoma; 2.2 µM with UACC-62 melanoma; 2.32 µM with ACHN renal; 2.96 µM with DU-145 prostate; 2.13 µM with SF-295 CNS. The GI50 with NCI/ADR-RES ovarian is 0.703 µM; in the test with OVCAR-5 ovarian, 2.6 µM; in the test on RXF 393 renal, 1.43 µM; in the test with HT29 colon, 3.51 µM. Moreover, the TGI is 15.9 µM in the test on PC-3 prostate; 14.1 µM in the test with SK-MEL-2 melanoma; 6.02 µM with UACC-62 melanoma; 7.91 µM with ACHN renal; 11.3 µM in the test on DU-145 prostate; 4.56 µM in the test on SF-295 CNS. Moreover, the TGI amounted to 3.18 µM in the test with NCI/ADR-RES ovarian, 10.9 µM in the test on OVCAR-5 ovarian, 3.36 µM in the test with RXF 393 renal and 13.4 µM with HT29 colon.

With `COc1c(CNC(=O)CCl)cc2[nH]c(C)cc2c1CNC(=O)CCl`, the GI50 was 12.2 µM in the test with PC-3 prostate; 11 µM with SK-MEL-2 melanoma; 1.28 µM with UACC-62 melanoma; 5.47 µM in the test with ACHN renal; 5.03 µM with DU-145 prostate; 12.8 µM with SF-295 CNS. Further, the GI50 in the test with NCI/ADR-RES ovarian is 56.1 µM; in the test with OVCAR-5 ovarian, 5.44 µM; in the test with RXF 393 renal, 3.5 µM; in the test with HT29 colon, 5.97 µM. The TGI in the test with PC-3 prostate is 33.9 µM; in the test with SK-MEL-2 melanoma it was 41.6 µM; in the test on UACC-62 melanoma, 4.11 µM; in the test with ACHN renal, 31.6 µM; in the test with DU-145 prostate, 19.7 µM; in the test with SF-295 CNS, 71.9 µM. Also, the TGI with NCI/ADR-RES ovarian was > 100 µM; in the test with OVCAR-5 ovarian, 25.9 µM; with RXF 393 renal, 14.1 µM; with HT29 colon, 25.2 µM.

For `CC(=O)OCC1OC(OC2=C(CC=C(Cl)Cl)C(=O)c3ccccc3C2=O)C(OC(C)=O)C(OC(C)=O)C1OC(C)=O` (stereo not given), the GI50 with PC-3 prostate is 2.66 µM; in the test on SK-MEL-2 melanoma it was 3.33 µM; in the test on UACC-62 melanoma it was 2.85 µM; with ACHN renal it was 3.24 µM; with DU-145 prostate it was 11.8 µM; with SF-295 CNS it was 16.3 µM. Also, the GI50 was 4.23 µM in the test on NCI/ADR-RES ovarian, 11.8 µM in the test with OVCAR-5 ovarian, 2.53 µM with RXF 393 renal and 16 µM with HT29 colon. Further, the TGI stood at 11.5 µM with PC-3 prostate; 9.25 µM in the test with SK-MEL-2 melanoma; 11.2 µM in the test with UACC-62 melanoma; 12 µM with ACHN renal; 24.1 µM with DU-145 prostate; 31.4 µM in the test on SF-295 CNS. In addition, the TGI with NCI/ADR-RES ovarian stood at 51.9 µM; with OVCAR-5 ovarian, 28.6 µM; with RXF 393 renal it was 8.01 µM; in the test with HT29 colon, 60.5 µM.

Regarding `CCCCN(CCCC)CCCN=c1nc2c(c(N)n1-c1ccccc1)c(=S)n(-c1ccccc1)c(=S)n2-c1ccccc1`, the GI50 with PC-3 prostate was 0.59 µM; with SK-MEL-2 melanoma, 1.74 µM; with UACC-62 melanoma, 0.714 µM; with ACHN renal it was 0.567 µM; with DU-145 prostate it was 1.34 µM; in the test on SF-295 CNS it was 1.4 µM. The GI50 is 2.09 µM in the test with NCI/ADR-RES ovarian, 1.67 µM with OVCAR-5 ovarian, 1.96 µM in the test on RXF 393 renal and 0.276 µM with HT29 colon. For the same molecule, the TGI in the test on PC-3 prostate turned out to be 1.94 µM; in the test on SK-MEL-2 melanoma, 3.47 µM; in the test with UACC-62 melanoma it was 2.02 µM; in the test on ACHN renal, 1.8 µM; in the test with DU-145 prostate, 2.75 µM; in the test with SF-295 CNS, 3 µM. Besides, the TGI in the test on NCI/ADR-RES ovarian was found to be 4.12 µM; in the test with OVCAR-5 ovarian, 3.24 µM; in the test with RXF 393 renal it was 4.75 µM; with HT29 colon, 0.784 µM.

In the case of `COC(=O)[C@H](CC(C)C)NC(=O)NC(=O)NC(=O)CI`, the GI50 was 11.8 µM in the test on PC-3 prostate; 13.7 µM in the test with SK-MEL-2 melanoma; 13.4 µM in the test on UACC-62 melanoma; 1.78 µM in the test on ACHN renal; 14 µM with DU-145 prostate; 14.7 µM with SF-295 CNS. Besides, the GI50 is 25.5 µM in the test on NCI/ADR-RES ovarian, 14.3 µM in the test on OVCAR-5 ovarian, 2.46 µM in the test with RXF 393 renal and 1.93 µM with HT29 colon. The TGI with PC-3 prostate was 25.7 µM; with SK-MEL-2 melanoma, 27.9 µM; in the test on UACC-62 melanoma, 28.2 µM; in the test with ACHN renal, 3.38 µM; in the test with DU-145 prostate, 27 µM; in the test on SF-295 CNS, 28.7 µM. For the same molecule, the TGI with NCI/ADR-RES ovarian is 74.1 µM; in the test with OVCAR-5 ovarian it was 30 µM; with RXF 393 renal it was 6.54 µM; in the test with HT29 colon, 3.59 µM.
